Assay results as given in patent US10392630B2, “Plants having increased tolerance to herbicides” (BASF AGRO B.V., priority 2013, dated 2019).
Residue numbers refer to the chain shown, from its start.

How the values were obtained:
Assay in all cases: biochemical
[1] = biological target: T1, Amaranthus mutant PPO (AMARE) (Amaranthus tuberculatus, UniProt Q0NZW9, F420I)
T1 sequence (Q0NZW9 1-534 F420I): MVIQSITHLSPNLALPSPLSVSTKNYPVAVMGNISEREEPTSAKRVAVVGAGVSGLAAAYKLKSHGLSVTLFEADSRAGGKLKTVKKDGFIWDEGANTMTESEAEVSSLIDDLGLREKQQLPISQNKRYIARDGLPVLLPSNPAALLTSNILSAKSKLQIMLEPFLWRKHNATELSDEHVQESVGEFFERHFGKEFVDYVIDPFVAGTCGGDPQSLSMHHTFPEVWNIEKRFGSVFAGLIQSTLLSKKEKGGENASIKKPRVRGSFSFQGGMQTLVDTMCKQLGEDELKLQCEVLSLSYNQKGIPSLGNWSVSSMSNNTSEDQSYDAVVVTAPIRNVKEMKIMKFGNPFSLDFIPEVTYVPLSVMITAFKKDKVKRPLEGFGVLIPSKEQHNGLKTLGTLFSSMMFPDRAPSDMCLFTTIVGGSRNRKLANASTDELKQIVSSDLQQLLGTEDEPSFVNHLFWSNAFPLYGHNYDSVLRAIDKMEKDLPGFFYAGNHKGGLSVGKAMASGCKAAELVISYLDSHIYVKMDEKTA

[2] = biological target: T2, Amaranthus mutant PPO (AMARE) (Amaranthus tuberculatus, UniProt Q0NZW9, F420L)
T2 sequence (Q0NZW9 1-534 F420L): T1 sequence (Q0NZW9 1-534 F420I) with I420L

[3] = biological target: T3, Amaranthus mutant PPO (AMARE) (Amaranthus tuberculatus, UniProt Q0NZW9, F420M)
T3 sequence (Q0NZW9 1-534 F420M): T1 sequence (Q0NZW9 1-534 F420I) with I420M

[4] = biological target: T4, Amaranthus mutant PPO (AMARE) (Amaranthus tuberculatus, UniProt Q0NZW9, R128I)
T4 sequence (Q0NZW9 1-534 R128I): T1 sequence (Q0NZW9 1-534 F420I) with R128I, I420F

[5] = biological target: T5, Amaranthus mutant PPO (AMARE) (Amaranthus tuberculatus, UniProt Q0NZW9, R128L)
T5 sequence (Q0NZW9 1-534 R128L): T1 sequence (Q0NZW9 1-534 F420I) with R128L, I420F

Work on `CC(C)N(C)S(=O)(=O)NC(=O)c1cc(-n2c(=O)cc(C(F)(F)F)n(C)c2=O)c(F)cc1Cl` [saflufenacil] yielded an IC50 [1] of 919 nM, an IC50 [2] of 7200 nM and an IC50 [3] of 677 nM. It also gave an IC50 [4] of 365 nM and an IC50 [5] of 222 nM.
